The values below come from patent US10577610B2, “EpCAM aptamers and conjugates thereof” (Deakin University, priority 2015, dated 2020).

The target in series [1] is T1, mouse TfR (Mus musculus, UniProt Q62351).
T1 construct: bEnd.3 cells, mouse cells positive for TfR; host or cells: bEnd.3 mouse cerebral endothelial cells
Briefly: Flow cytometry binding assay on bEnd.3 cells (TfR-positive). The following applies: bEnd.3 (TfR-positive) cells, n=3. The method, then:
In order to determine the binding affinity (equilibrium dissociation constant KD) of the aptamers. Binding assays were conducted to measure the binding to native EpCAM protein expressed on the cell surface. The aptamers were incubated with the cells at concentrations ranging from 0 nM to 400 nM. These were subsequently analysed by flow cytometry. Aptamers were thawed from storage (-20° C.) prior to use. These were then diluted via serial dilutions with phosphate buffered saline (PBS) in order to achieve the desired concentrations. PBS was supplemented with a MgCl2 concentration appropriate for the aptamer (1 mM for anti-TfR aptamers; 5 mM for conjugate aptamers). […] Concurrently, subcultured cells were incubated in blocking buffer (PBS with 10% FCS, 1 mg/mL BSA, 0.1 mg/mL tRNA) for 30 minutes. Following centrifugation, blocking buffer was removed and cells were resuspended in binding buffer (PBS with 10% FCS, 1 mg/mL BSA, 0.1 mg/mL tRNA). Cells (50 μL) were then incubated with the aptamers (50 μL) for 30 minutes at 37° C. at a range of concentrations (0 nM, 20 nM, 40 nM, 60 nM, 80 nM, 100 nM, 200 nM, 400 nM). Following this, cells were washed in 100 μL PBS three times before final resuspension for flow cytometry. Aptamers were incubated with the chosen cell lines (bEnd.3 cells, mouse cells positive for TfR; HEY cells, human ovarian cancer cell line positive for EpCAM; and MOLT4 human cells negative for both TfR and EpCAM) at a range of concentrations. Aptamer-bound cells were analysed using a FACS Canto II flow cytometer (Becton Dickinson), counting 10,000 events for each sample, in order to determine the binding affinity of the aptamers. […] The value for the auto fluorescent 0 nM concentration was subtracted from the other figures to account for background fluorescence (Li N et al (2009) Journal of Proteome Research 8(5):2438-48). […] The binding affinities of aptamers TfR1, TfR2, […] determined semi-quantitatively via flow cytometry, using bEnd.3 mouse cerebral endothelial cells as a Tf R-positive cell line and MOLT4 acute lymphoblastic leukaemia cells-which express the human TfR, but not the mouse TfR (Sutherland R et al (1981) PNAS 78(7):4515-9)-as a negative control. Three independent binding assays were performed for each aptamer against each cell line. […] Three independent binding assays were performed for these aptamer against all three cell lines (bEnd.3, HEY and MOLT4).
(In general: Flow cytometry measures light scatter and fluorescence of single cells or particles in a stream.)

In series [2] the target is T2, native EpCAM protein expressed on the cell surface (HT29 cells) (Homo sapiens, UniProt P16422).
T2 construct: endogenous in cells; host or cells: HT29 cells
T2 sequence (P16422 24-314): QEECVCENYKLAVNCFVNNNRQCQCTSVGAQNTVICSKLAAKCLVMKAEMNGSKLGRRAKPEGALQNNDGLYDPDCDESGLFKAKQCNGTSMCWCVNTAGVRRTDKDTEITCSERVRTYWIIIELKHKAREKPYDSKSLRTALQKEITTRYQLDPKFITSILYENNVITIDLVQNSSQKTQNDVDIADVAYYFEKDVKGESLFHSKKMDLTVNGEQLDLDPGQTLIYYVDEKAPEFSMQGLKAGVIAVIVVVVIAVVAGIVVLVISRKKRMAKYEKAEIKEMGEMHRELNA
Briefly: Flow cytometry binding assay on HT29 cells (EpCAM-positive). The following applies: n=3. The procedure:
(§1) The equilibrium dissociation constant (KD) of each DNA EpCAM aptamer (Ep7, Ep8 and Ep9) was determined by measuring its binding to native EpCAM protein expressed on the cell surface using flow cytometry. HT29, HEY and HEK293T (5×10^5) cells were first incubated with blocking buffer (PBS containing 10% FCS, 1 mg/mL tRNA, 1 mg/mL BSA) for 30 minutes followed by a single wash with binding buffer (PBS containing 10% FCS, 1 mg/mL tRNA, 1 mg/mL BSA) prior to incubation with serial dilutions of concentrations of the respective TYE665-labelled aptamers (0 to 200 nM) in binding buffer for 30 min at 37° C. The cells were washed three times with PBS and resuspended in PBS prior to flow cytometric analysis. The fluorescent intensity was determined using a FACS Canto II flow cytometer (Becton Dickinson), counting 10,000 events for each sample. The mean fluorescent intensity of each concentration was […] the auto fluorescent control and the KD for each aptamer was calculated from the normalised values for fluorescent intensity.

For series [3], the target named is T3, native EpCAM protein expressed on the cell surface (HEY cells) (Homo sapiens, UniProt P16422).
T3 construct: host or cells: HEY ovarian cancer cells
T3 sequence (P16422 24-314): T2 sequence (P16422 24-314)
Briefly: Flow cytometry binding assay on HEY cells (EpCAM-positive). The following applies: HEY (EpCAM-positive) cells, flow cytometry, n=3. The procedure:
In order to determine the binding affinity (equilibrium dissociation constant KD) of the aptamers. Binding assays were conducted to measure the binding to native EpCAM protein expressed on the cell surface. The aptamers were incubated with the cells at concentrations ranging from 0 nM to 400 nM. These were subsequently analysed by flow cytometry. Aptamers were thawed from storage (−20° C.) prior to use. These were then diluted via serial dilutions with phosphate buffered saline (PBS) in order to achieve the desired concentrations. PBS was supplemented with a MgCl2 concentration appropriate for the aptamer (1 mM for anti-TfR aptamers; 5 mM for conjugate aptamers). Aptamers were then folded into their 3D structures using a thermocycler (85° C. for 5 minutes, slow cooling to 22° C. over 10 minutes and 37° C. for 15 minutes).
Concurrently, subcultured cells were incubated in blocking buffer (PBS with 10% FCS, 1 mg/mL BSA, 0.1 mg/mL tRNA) for 30 minutes. Following centrifugation, blocking buffer was removed and cells were resuspended in binding buffer (PBS with 10% FCS, 1 mg/mL BSA, 0.1 mg/mL tRNA). Cells (50 μL) were then incubated with the aptamers (50 μL) for 30 minutes at 37° C. at a range of concentrations (0 nM, 20 nM, 40 nM, 60 nM, 80 nM, 100 nM, 200 nM, 400 nM). Following this, cells were washed in 100 μL PBS three times before final resuspension for flow cytometry.
Aptamers were incubated with the chosen cell lines (bEnd.3 cells, mouse cells positive for TfR; HEY cells, human ovarian cancer cell line positive for EpCAM; and MOLT4 human cells negative for both TfR and EpCAM) at a range of concentrations. Aptamer-bound cells were analysed using a FACS Canto II flow cytometer (Becton Dickinson), counting 10,000 events for each sample, in order to determine the binding affinity of the aptamers. […] The value for the auto fluorescent 0 nM concentration was subtracted from the other figures to account for background fluorescence (Li N et al (2009) Journal of Proteome Research 8(5):2438-48). The resultant values were then used to determine the dissociation constant (KD) via the Graph Pad Prism 3 software. […]
The binding affinities of aptamers Bi1, Bi2 and Bi3 were determined semi-quantitatively via flow cytometry, using bEnd.3 cells to assess reactivity with TfR, HEY cells to determine EpCAM specificity and the MOLT4 cell line as a negative control. Three independent binding assays were performed for these aptamer against all three cell lines (bEnd.3, HEY and MOLT4). […]

The nature of series [4]: Doxorubicin loading efficiency by fluorescence spectroscopy. Particulars: mean±SEM. The source says:
The anthracycline class of drugs, including DOX, have fluorescence properties that become quenched after intercalation into DNA (Valentini L et al (1985) II Farmaco edizione scientifica 40(6):377-90. The natural fluorescence of doxorubicin and its subsequent quenching after intercalating with the DNA EpCAM aptamers was utilised for the measurement of the extent of doxorubicin conjugation via Fluorescent Spectroscopy. The conjugation process was studied using different aptamer-doxorubicin molar ratios (0, 0.01, 0.04, 0.08, 0.1, 0.2, 0.3, 0.4, 0.5, and 0.6) and analysed with a fluorescence plate reader based on a standard curve of free doxorubicin.
Prior to conjugation, aptamers were prepared for application as previously described. DOX was then combined with aptamer in conjugation buffer containing 0.1 M sodium acetate, 0.05 M NaCl, and 5 mM MgCl2 and incubated at 37° C. in an Orbital mixer/incubator (RATEK) for 1 hour with agitation (75 r.p.m). The conjugate was then passed through a Sephadex®G-10 medium column (Sigma-Aldrich) to separate the aptamer: doxorubicin conjugate from free DOX. As DOX has a natural fluorescence which is subsequently quenched following intercalation into double stranded DNA, this characteristic of DOX was exploited to determine the amount of DOX that was intercalated into the double stranded stem region of the conjugate aptamers. After column separation, DOX was extracted from the conjugate yield by adding 150 uL of acetonitrile. This solution was then centrifuged for 5 min at 21,000 g. Eighty microliters of supernatant was removed and fluorescent intensity was quantified with a fluorescent plate reader. A calibration standard curve was prepared with known concentrations of DOX under the same condition
Data was analysed using Graph Pad Prism 3 and data was reported as mean and standard error of the mean (mean±SEM) unless otherwise stated.

For series [5], the system named is HEK293T and K562. Briefly: Flow cytometry binding to EpCAM negative cell lines. The following applies: HEK293T and K562, 0 and 100 nM. The method, then: as §1
Series [6] deals with HT29 and HEY cells. Briefly: Confocal microscopy internalisation of EpCAM aptamers into EpCAM positive cells. In kind it is cell-based. The following applies: 200 nM, 60 min. The procedure:
The ability of each DNA EpCAM aptamer to be internalised was established through confocal microscopy. HT29, HEY, K652 and HEK293T were seeded at 8×10^5 cells per well in 8-chamber slide for 24 h in preparation for confocal […]. Cells were incubated with blocking buffer for 60 min, followed by resuspension in binding buffer and containing 200 nM EpCAM aptamer or negative control aptamer and incubated for 60 min at 37° C. Bisbenzimide Hoechst 33342 (3 mg/ml) (Sigma) was added to the cells during the final 10 min of incubation. The aptamer solution was removed and the cells were washed three times for 5 min each in PBS prior to visualisation using a FluoView FV10i laser scanning confocal microscope (Olympus).

[invdT] = inverted (3'-3') thymidine; {TYE665} = TYE665 fluorescent dye

T1 sequence (Q62351 whole entry): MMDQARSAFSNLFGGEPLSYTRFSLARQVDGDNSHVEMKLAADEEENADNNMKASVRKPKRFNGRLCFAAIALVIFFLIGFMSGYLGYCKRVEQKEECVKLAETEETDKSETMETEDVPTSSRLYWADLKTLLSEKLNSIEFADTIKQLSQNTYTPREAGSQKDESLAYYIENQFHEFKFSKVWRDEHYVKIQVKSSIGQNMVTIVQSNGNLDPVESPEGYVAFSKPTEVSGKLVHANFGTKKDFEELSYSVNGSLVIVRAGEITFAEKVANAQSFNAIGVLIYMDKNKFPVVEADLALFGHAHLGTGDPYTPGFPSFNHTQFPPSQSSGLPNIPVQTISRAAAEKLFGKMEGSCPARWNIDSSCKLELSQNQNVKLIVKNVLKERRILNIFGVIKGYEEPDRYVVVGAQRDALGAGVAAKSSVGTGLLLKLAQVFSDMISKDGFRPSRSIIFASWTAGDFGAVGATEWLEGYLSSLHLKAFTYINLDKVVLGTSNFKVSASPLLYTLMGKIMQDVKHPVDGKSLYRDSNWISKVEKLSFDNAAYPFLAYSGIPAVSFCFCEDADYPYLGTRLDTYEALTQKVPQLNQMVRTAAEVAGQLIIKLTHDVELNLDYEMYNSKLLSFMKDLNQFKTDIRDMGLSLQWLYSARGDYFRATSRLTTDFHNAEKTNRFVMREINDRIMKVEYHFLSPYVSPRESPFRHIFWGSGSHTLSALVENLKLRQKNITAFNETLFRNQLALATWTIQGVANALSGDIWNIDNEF

Turning to “TfR1: truncated fourteen nucleotide DNA aptamer against mouse TfR, SEQ ID NO:4 (GCGTGTGCACACGC; DNA, backbone not given here; further chemistry not fully specified)”, in series [1], the dissociation constant (Kd) – broadly, the constant that tells how readily two partners part at equilibrium – was 5760 ± 7120 nM.
Take “Ep7: truncated DNA EpCAM aptamer derived from SYL3C, SEQ ID NO:9 (ACAGAGGTTGCGTCTG; DNA, [invdT] at 3' end, 5' {TYE665}, backbone not given here)”: the Kd was 11 ± 2.79 nM in series [2] and 248 ± 82.2 nM in series [3]. Besides, in series [4], the “Molar ratio aptamer:dox” value was 0.42 ± 0.11. In addition, in series [5], the “Binding to EpCAM negative cell lines” value is “did not bind”. Further, in series [6], the “Internalisation by EpCAM positive cells” value is on record as “internalised”.
In series [3], “Ex Ep7: extended Ep7 aptamer with the same binding loop as Ep7, SEQ ID NO:13 (CGCGCGCCGCAGGTTGCGTGCGGCGCGCG; DNA, 5' {TYE665}, 3' [invdT], backbone not given here)” displayed a dissociation constant Kd of 63.7 ± 14.4 nM. In series [4], the “Molar ratio aptamer:dox” value turned out to be 1.17 ± 0.02. Further, the “Internalisation by EpCAM positive cells” value in series [6] is reported as “internalised”.
On the same counts, the results for “Scr Ex Ep7: scrambled extended Ep7 aptamer with randomly selected base pairs in the binding loop, SEQ ID NO:14 (CGCGCGCCGCATTCCTTTTGCGGCGCGCG; DNA, 5' {TYE665}, 3' [invdT], backbone not given here)” are 521 ± 272 nM, 1.01 ± 0.01 and “not internalised”.
“Ep9: truncated DNA EpCAM aptamer derived from SYL3C, SEQ ID NO:12 (GGGGTTGGCCCC; DNA, 5' {TYE665}, 3' [invdT], backbone not given here)”: the Kd in series [2] was 31.8 ± 7.65 nM; in series [3], 266 ± 121 nM. The “Molar ratio aptamer:dox” value in series [4] worked out at 0.35 ± 0.06. Besides, the “Binding to EpCAM negative cell lines” value in series [5] is on record as “did not bind”. In addition, in series [6], the “Internalisation by EpCAM positive cells” value is listed as “internalised”.
Taken in the same sequence, the figures for “Ep8: truncated DNA EpCAM aptamer derived from SYL3C, SEQ ID NO:11 (CCCACGTTGTCATGGG; DNA, 5' {TYE665}, 3' [invdT], backbone not given here)” were 6.19 ± 2.24 nM, 696 ± 486 nM, 0.38 ± 0.06, “did not bind” and “internalised”.
In turn, “TfR2: version of TfR1 with scrambled binding loop sequence, SEQ ID NO:5 (DNA GCGTGGGCCCACGC; DNA, backbone not given here; further chemistry not fully specified)” returned a Kd in series [1] of 525 ± 161 nM.
Consider “5′ CACTACAGAGGTTGCGTCTGTCCCACGTTGTCATGGGGGGTTGGCCTG 3′ (CACTACAGAGGTTGCGTCTGTCCCACGTTGTCATGGGGGGTTGGCCTG; listed as DNA, chemistry not fully specified) [Full length EpCAM aptamer, reference compound]”, for which the Kd in series [2] was 9 ± 1.68 nM; in series [3], 495 ± 147 nM. The “Molar ratio aptamer:dox” value in series [4] was found to be 0.53 ± 0.13.
